Here are results for four compounds from article PMC9365994, “Small molecules to regulate the GH/IGF1 axis by inhibiting the growth hormone receptor synthesis” (Frontiers in Endocrinology, 2022).

The target in assay [1] is T1, GHR (Oryctolagus cuniculus, UniProt P19941).
T1 construct: expressed in transfected cells; host or cells: Hek293 / Hek293T cells
T1 sequence (P19941 19-638): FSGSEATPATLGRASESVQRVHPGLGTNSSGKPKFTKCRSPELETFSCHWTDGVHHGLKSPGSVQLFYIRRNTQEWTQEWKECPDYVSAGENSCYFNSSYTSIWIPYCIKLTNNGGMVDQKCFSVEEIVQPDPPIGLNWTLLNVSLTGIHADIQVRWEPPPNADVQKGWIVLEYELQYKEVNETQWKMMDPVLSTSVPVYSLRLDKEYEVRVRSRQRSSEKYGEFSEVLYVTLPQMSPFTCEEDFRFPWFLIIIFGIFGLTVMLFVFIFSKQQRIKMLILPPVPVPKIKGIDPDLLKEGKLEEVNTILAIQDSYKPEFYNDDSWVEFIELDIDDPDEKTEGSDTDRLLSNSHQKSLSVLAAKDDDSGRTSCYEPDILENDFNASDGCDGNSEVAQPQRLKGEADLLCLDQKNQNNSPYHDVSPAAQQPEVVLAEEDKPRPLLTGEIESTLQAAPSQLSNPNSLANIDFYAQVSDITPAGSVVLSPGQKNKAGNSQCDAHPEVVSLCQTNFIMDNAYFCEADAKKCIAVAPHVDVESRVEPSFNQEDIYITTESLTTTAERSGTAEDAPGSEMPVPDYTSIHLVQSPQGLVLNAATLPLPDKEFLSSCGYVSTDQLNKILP
Put plainly: GHR and pY-GHR immunoblot in GHR-transfected Hek293 cells stimulated with GH. Type of assay: cell-based, rabbit. The following applies: for GHR HEK cells (GHR at PM and in ER): 10 µM drugs overnight; for GHR pY HEK cells: GH 10-15 min before lysis, drugs overnight/20 h. The method, then: For GHR-Jak2 co-immunoprecipitations, the cells were lysed in 20 mM Tris pH 8.0, 150 mM NaCl, 0.5% NP40, 1 mM PMSF, […]. Cell lysates were centrifuged to pellet the nuclei and the supernatants were used for GHR isolation in 1% Triton X-100, 0.5% SDS,0.25% sodium deoxycholate, 0.5% BSA, and inhibitors via immune precipitation with anti-GHR and protein A beads. Immunoprecipitates were subjected to reducing SDS-PAGE and transferred to Immobilon-FL polyvinylidenedifluoride membrane (Millipore). Blots were immunostained with the indicated primary antibodies followed by Alexa Fluor 680, Alexa-800 IRDye conjugated anti-mouse or anti-rabbit antibodies. Detection was performed with an Odyssey system (LI-COR Biosciences).
In the primary screen we used soluble fos-zipped GHR cytosolic tails that act in signaling complexes if co-expressed with Jak2. Initially, 6 scenarios were anticipated that can lower these signals. In the discovery itinerary we used the flow cytometer assay twice to find drugs that act on the GH-induced Jak2/STAT5 pathway and not on the identical GM/CSF-driven pathway ( Figure 3 , Figure S8 ). As the GM/CSF-induced Jak2/STAT5 pathway was not affected by the 2 hit compounds (BM004 and BM012), that served as prototypes for the final analogue selection, we excluded the possibility that they act on the Jak2 signaling pathway directly (scenario 1). To test scenario 2 (inhibition of fos-GHRct expression), we treated GHR-expressing Hek293T cells with a selection of drugs from the cell proliferation studies and analyzed the GHR species. […] The ratio between the amounts of GHR in the ER and at the PM reflects a steady state of synthesis (ER) and transport to the PM followed by endocytosis and degradation in the lysosomes. […] Because both species diminished, the drugs either inhibit the synthesis of GHR molecules or induce rapid GHR degradation in the ER. To decide between these possibilities, we performed in vitro translation experiments. […] To exclude scenario 3 (inhibition of the GHR : Jak2 interaction) we replaced the proline residues in box-1 (the binding site for Jak2) with alanine residues. […] These findings render scenarios 4-6 (increased degradation of fos-pGHRct, increased degradation of Jak2, and dephosphorylation of fos-pGHRct) unlikely.
Figure 7 Effect of drugs on protein synthesis. (A): Effect of compounds on GHR. […] The amounts of GHR both at the plasma membrane (PM) and in the ER (ER) were decreased in the drug-treated cells. […] The cells were treated for GH for 10 min before lysis to be able to monitor the pY signals, after GHR isolation by immunoprecipitation (middle panels). The effect of the drugs on the pY signals reflected those of the GHR levels (only PM species were visible). In the presence of Ruxolitinib, the protein levels were unchanged, while the pY label (middle panel) was absent. […] This experiment represents the results of 6 independent repeats. (B): BM001 concentration effects on the synthesis of fos-GHRct in a HeLa cell cell-free system. […] In the right panel the 4 proline residues in box-1 were replaced by alanine residues. Empty vector (pcDNA) was used as control. The blots were detected with anti-GHR(B). The in vitro translation was performed 5 times that all show a clear inhibitory effect of BM001 on the GHR signal. (C): Effect of selected drugs on GHR levels in human lymphoblasts. IM‐9 human B lymphoblasts express endogenous GHR. […]

In assay [2] the test system is GM-CSF-Jak2-Stat5 signaling in blood monocytes. Put plainly: Flow cytometric (FACS) pSTAT5 test, GM-CSF-induced, blood monocytes. To be noted: Fig. S8B; Conc of drugs: 1 mM; incubation time 30 min.
Description: (§1) First round: The PerFix EXPOSE (Beckman Coulter), was used to fix and permeabilize cells according to the optimized procedure described in Malergue et al., 2015 ([36]). Samples were analyzed in FC500 MPL. Data were analyzed with Kaluza software (Beckman Coulter). Second round: the PerFix EXPOSE was used according to the IFU and samples were analyzed in a Navios Cytometer. The first screening used pure IM-9 cells, whereas in the second round they were spiked in 100 µL whole blood (EDTA tubes). 15 min after the inhibitory compounds, the activators were added for 20-30 min.
In short: A mixture of blood and
(§2) IM9 human lymphoblast was incubated with the drugs (50 µM) for 15 MIN; GH and GM-CSF
(§3) were added 7 min before the cells were fixed with formaldehyde. Blood cells are sensitive to
(§4) GM-CSF, and not to GH; IM9 cells are sensitive to GH. A mixture of three antibodies in three
(§5) colors; CD14-FITC, CD34-PE and p-Stat5-Alexa 647 was used to analyze the p-Stat5 levels
of monocytes and IM9 cells.
(§6) Fig. S8A. FACS plots of compounds that inhibit GH-induced GHR-Jak2-Stat5 signaling in IM9 lymphoblasts.
(§7) The end point of the signaling cascade is measured by assessing the phosphorylation status of STAT5.
(§8) Stat5. Conc of drugs: 1 mM; incubation time 30 min
(§9) Fig. S8B. FACS plots of compounds that inhibit GM-CSF-Jak2-Stat5 signaling in blood monocytes. The end
(§10) point of the signaling cascade is measured by assessing the phosphorylation status of STAT5.
In assay [3] the test system is GH-induced GHR-Jak2-Stat5 signaling in IM9 lymphoblasts. Description: Flow cytometric (FACS) pSTAT5 test, GH-induced, IM9 cells in whole blood. To be noted: for GH-induced Stat5 phosphorylation (in words): Fig. S8A, Conc of drugs: 1 mM, incubation time 30 min; for inhibition in the FACS assay: drugs 50 µM for 15 MIN.
Description: as §1
In short: A mixture of blood and
as §2, §3, §4, §5
of monocytes and IM9 cells.
as §6, §7, §8, §9, §10

“Also recorded” adds a separate entry of the source. Some results are limits rather than exact numbers.

For the compound `N#CC[C@H](C1CCCC1)n1cc(-c2ncnc3[nH]ccc23)cn1` [Ruxolitinib, reference compound], in assay [1], the “GHR HEK cells (GHR at PM and in ER)” value is “unchanged”; the “GHR pY HEK cells” value is listed as “absent”.
`Cc1nc(N)nc(N)c1/C=C/C1(c2ccc(C(F)(F)F)cc2)CC1` [BM001]: in assay [1], the “GHR HEK cells (GHR at PM and in ER)” value is listed as “strongest effect”.
Take `CCOc1cccc2nc(N)nc(N)c12` [BM012]: the “GHR pY HEK cells” value in assay [1] is “reduced”. In addition, in assay [2], the “GM-CSF-induced Stat5 phosphorylation (in words)” value is “no effect; also recorded: inactive; also recorded: not affected”. In assay [3], the “time to decrease of STAT5 phosphorylation” value is recorded as at most 30 min, the “GH-induced Stat5 phosphorylation (in words)” value is given as “decreased; also recorded: inhibit” and the “inhibition in the FACS assay” value was over 30%.
Take `Cc1nc(N)nc(N)c1C#CC1(c2ccc(Cl)cc2)CC1` [BM004]: the “GHR pY HEK cells” value in assay [1] is “reduced”. Moreover, in assay [2], the “GM-CSF-induced Stat5 phosphorylation (in words)” value was “no effect; also recorded: inactive; also recorded: not affected”. In assay [3], the “time to decrease of STAT5 phosphorylation” value is given as at most 30 min, the “GH-induced Stat5 phosphorylation (in words)” value is “decreased; also recorded: inhibit” and the “inhibition in the FACS assay” value is listed as over 30%.
